Experimental data as given in patent US12194039B2, “Methods of treating heart failure by administering omecamtiv mecarbil” (Cytokinetics, Inc., priority 2020, dated 2025).
Like-named read-outs stand apart in the source and are kept apart here.

System: patients with HFrEF by ejection fraction quartile
Type: in vivo, human
Design: Change from baseline in KCCQ Total Symptom Score, least square mean / KCCQ Total Symptom Score Inpatient, Treatment Difference, least squares mean / KCCQ Total Symptom Score Outpatient, Treatment Difference, least squares mean / KCCQ Total Symptom Score, Treatment Difference, least squares mean: scale not given here
Conditions: for Adjudicated First Major Cardiac Ischemic Events, % / Adjudicated First Stroke, % / Adverse Event: Ventricular Tachyarrhythmia, % / All-cause Death (%) / All-cause Death Rate / All-cause Death n/N / Any treatment Emergent Serious Adverse Events, % / Positively Adjudicated Myocardial Infarction, % / Serious Adverse Event: Ventricular Arrhythmia Requiring Treatment, % / 1st HF Hospitalization (%) / 1st HF Hospitalization Rate / 1st HF Hospitalization n/N / First HF Event (%) / First HF Event Rate / First HF Event n/N / Primary Outcome (%) / Primary Outcome Rate / Primary Outcome n/N / Total HF Events, Events / Total HF Events, Rate / Total HF Hospitalizations, Events / Total HF Hospitalizations, Rate: OM group; for Adjudicated First Major Cardiac Ischemic Events, Relative Risk / Adjudicated First Stroke, Relative Risk / Adverse Event: Ventricular Tachyarrhythmia, Relative Risk / All-cause Death ARR / All-cause Death HR (95% CI) / Any treatment Emergent Serious Adverse Events, Relative Risk / Positively Adjudicated Myocardial Infarction, Relative Risk / Serious Adverse Event: Ventricular Arrhythmia Requiring Treatment, Relative Risk / 1st HF Hospitalization ARR / 1st HF Hospitalization HR (95% CI) / First HF Event ARR / First HF Event HR (95% CI) / Primary Outcome ARR / Primary Outcome HR (95% CI) / Total HF Events, ARR / Total HF Events, Ratio (95% CI) / Total HF Hospitalizations, ARR / Total HF Hospitalizations, Ratio (95% CI): OM vs placebo
Protocol: Continuous variables were summarized via means and standard deviations or medians and interquartile ranges, as appropriate. Categorical variables are summarized with counts and percentages. Tests of trend across categories were conducted via linear regression, Cuzick's non-parametric trend test, and Chi-squared tests of trend, respectively. Treatment effects on continuous outcomes were assessed via linear regression models adjusted for the corresponding baseline value of the parameter of interest. Survival analyses were conducted using Poisson regression models to estimate incidence rates, rate differences, and rate ratios and Cox proportional hazards models to estimate hazard ratios. […] To allow for potentially non-linear associations between ejection fraction and time-to-event outcomes, restricted cubic splines were utilized in the Poisson regression models with 3 knots. All analyses were conducted using STATA 16 (College Station, Tex.). P-values <0.05 were considered statistically significant. Due to the exploratory nature of these analyses, no adjustments were made for multiple comparisons.
Within each randomization setting subgroup least squares mean is from the mixed model which includes baseline total symptom score value, region, baseline eGFR, scheduled visit, treatment group and interaction of treatment with scheduled visit as covariates. Influence of Ejection Fraction on the Treatment Effect of Omecamtiv Mecarbil

[1] = EF 23-28%, baseline to Week 24, vs placebo
[2] = EF 29-32%, baseline to Week 24, vs placebo

In the case of COC(=O)N1CCN(Cc2cccc(NC(=O)Nc3ccc(C)nc3)c2F)CC1 [omecamtiv mecarbil], the “Adjudicated First Major Cardiac Ischemic Events, %” value (EF22%) is reported as 4.8%, the “Adjudicated First Stroke, %” value (EF22%) is reported as 1.5% and the “Adverse Event: Ventricular Tachyarrhythmia, %” value (EF22%) is reported as 9.8%. For the same molecule, the “All-cause Death (%)” value (EF22%) was “(29%)”, the “All-cause Death Rate” value (EF22%) was 17.0 per 100 patient years and the “All-cause Death n/N” value (EF22%) was 329/1127. The “Any treatment Emergent Serious Adverse Events, %” value (EF22%) was “(60.7%)”, the “Positively Adjudicated Myocardial Infarction, %” value (EF22%) was 3.3% and the “Serious Adverse Event: Ventricular Arrhythmia Requiring Treatment, %” value (EF22%) was 3.6%. For the same molecule, the “Adjudicated First Major Cardiac Ischemic Events, Relative Risk” value (EF22%) was “RR: 1.19”, the “Adjudicated First Stroke, Relative Risk” value (EF22%) was “RR: 0.65” and the “Adverse Event: Ventricular Tachyarrhythmia, Relative Risk” value (EF22%) was “RR: 1.00”. The “All-cause Death ARR” value (EF22%) was 0.8 per 100 patient years, the “All-cause Death HR (95% CI)” value (EF22%) was 0.98 (0.84, 1.14) and the “Any treatment Emergent Serious Adverse Events, Relative Risk” value (EF22%) was “RR: 0.94”. The “Positively Adjudicated Myocardial Infarction, Relative Risk” value (EF22%) was “RR: 1.22”, the “Serious Adverse Event: Ventricular Arrhythmia Requiring Treatment, Relative Risk” value (EF22%) was “RR: 0.88” and the “1st HF Hospitalization (%)” value (EF 23-28%) was “(27%)”. The “1st HF Hospitalization Rate” value (EF 23-28%) was 17.8 per 100 patient years, the “1st HF Hospitalization n/N” value (EF 23-28%) was 295/1086 and the “Adjudicated First Major Cardiac Ischemic Events, %” value (EF 23-28%) was 4.3%. For the same molecule, the “Adjudicated First Stroke, %” value (EF 23-28%) was 1.8%, the “Adverse Event: Ventricular Tachyarrhythmia, %” value (EF 23-28%) was 8.3% and the “All-cause Death (%)” value (EF 23-28%) was “(26%)”. The “All-cause Death Rate” value (EF 23-28%) was 14.4 per 100 patient years, the “All-cause Death n/N” value (EF 23-28%) was 278/1086 and the “Any treatment Emergent Serious Adverse Events, %” value (EF 23-28%) was “(56.9%)”. For the same molecule, the “First HF Event (%)” value (EF 23-28%) was “(28%)”, the “First HF Event Rate” value (EF 23-28%) was 18.5 per 100 patient years and the “First HF Event n/N” value (EF 23-28%) was 304/1086. For the same molecule, the “Positively Adjudicated Myocardial Infarction, %” value (EF 23-28%) was 2.7%, the “Primary Outcome (%)” value (EF 23-28%) was “(36%)” and the “Primary Outcome Rate” value (EF 23-28%) was 24.0 per 100 patient years. For the same molecule, the “Primary Outcome n/N” value (EF 23-28%) was 393/1086, the “Serious Adverse Event: Ventricular Arrhythmia Requiring Treatment, %” value (EF 23-28%) was 3.2% and the “Total HF Events, Events” value (EF 23-28%) was 577. For the same molecule, the “Total HF Events, Rate” value (EF 23-28%) was 30.0 per 100 pt-yrs, the “Total HF Hospitalizations, Events” value (EF 23-28%) was 541 and the “Total HF Hospitalizations, Rate” value (EF 23-28%) was 28.1 per 100 pt-yrs. For the same molecule, the “1st HF Hospitalization ARR” value (EF 23-28%) was 1.8 per 100 patient years, the “1st HF Hospitalization HR (95% CI)” value (EF 23-28%) was 0.86 (0.74, 1.01) and the “Adjudicated First Major Cardiac Ischemic Events, Relative Risk” value (EF 23-28%) was 1.00. For the same molecule, the “Adjudicated First Stroke, Relative Risk” value (EF 23-28%) was 0.53, the “Adverse Event: Ventricular Tachyarrhythmia, Relative Risk” value (EF 23-28%) was 0.98 and the “All-cause Death ARR” value (EF 23-28%) was 1.4 per 100 patient years. For the same molecule, the “All-cause Death HR (95% CI)” value (EF 23-28%) was 0.89 (0.76, 1.05), the “Any treatment Emergent Serious Adverse Events, Relative Risk” value (EF 23-28%) was 0.96 and the “First HF Event ARR” value (EF 23-28%) was 2.4 per 100 patient years. For the same molecule, the “First HF Event HR (95% CI)” value (EF 23-28%) was 0.84 (0.72, 0.98), the “Positively Adjudicated Myocardial Infarction, Relative Risk” value (EF 23-28%) was 0.89 and the “Primary Outcome ARR” value (EF 23-28%) was 3.3 per 100 patient years. The “Primary Outcome HR (95% CI)” value (EF 23-28%) was 0.85 (0.74, 0.97), the “Serious Adverse Event: Ventricular Arrhythmia Requiring Treatment, Relative Risk” value (EF 23-28%) was 1.04 and the “Total HF Events, ARR” value (EF 23-28%) was 4.0 per 100 pt-yrs. For the same molecule, the “Total HF Events, Ratio (95% CI)” value (EF 23-28%) was 0.83 (0.68, 1.01), the “Total HF Hospitalizations, ARR” value (EF 23-28%) was 3.2 per 100 pt-yrs and the “Total HF Hospitalizations, Ratio (95% CI)” value (EF 23-28%) was 0.84 (0.69, 1.02). For the same molecule, the “Creatinine, Treatment Difference” value [1] was 0.01 mg/dL, the “Heart rate, Treatment Difference” value [1] was −1.7 bpm and the “KCCQ Total Symptom Score, Treatment Difference, least squares mean” value [1] was −0.6. For the same molecule, the “NT-proBNP (Ratio)” value [1] was 0.90, the “Potassium, Treatment Difference” value [1] was -0.01 mmol/L and the “Systolic BP, Treatment Difference” value [1] was −0.6 mmHg. For the same molecule, the “Troponin I (Ratio)” value [1] was 1.29, the “Troponin I, Treatment Difference (95% CI)” value [1] was 4 (3, 5) ng/L and the “1st HF Hospitalization (%)” value (EF 29-32%) was “(27%)”. For the same molecule, the “1st HF Hospitalization Rate” value (EF 29-32%) was 17.6 per 100 patient years, the “1st HF Hospitalization n/N” value (EF 29-32%) was 279/1015 and the “Adjudicated First Major Cardiac Ischemic Events, %” value (EF 29-32%) was 4.1%. The “Adjudicated First Stroke, %” value (EF 29-32%) was 2.4%, the “Adverse Event: Ventricular Tachyarrhythmia, %” value (EF 29-32%) was 6.9% and the “All-cause Death (%)” value (EF 29-32%) was “(26%)”. For the same molecule, the “All-cause Death Rate” value (EF 29-32%) was 13.9 per 100 patient years, the “All-cause Death n/N” value (EF 29-32%) was 260/1015 and the “Any treatment Emergent Serious Adverse Events, %” value (EF 29-32%) was “(57.3%)”. The “First HF Event (%)” value (EF 29-32%) was “(28%)”, the “First HF Event Rate” value (EF 29-32%) was 18.2 per 100 patient years and the “First HF Event n/N” value (EF 29-32%) was 286/1015. The “Positively Adjudicated Myocardial Infarction, %” value (EF 29-32%) was 2.2%, the “Primary Outcome (%)” value (EF 29-32%) was “(37%)” and the “Primary Outcome Rate” value (EF 29-32%) was 23.8 per 100 patient years. For the same molecule, the “Primary Outcome n/N” value (EF 29-32%) was 375/1015, the “Serious Adverse Event: Ventricular Arrhythmia Requiring Treatment, %” value (EF 29-32%) was 2.1% and the “Total HF Events, Events” value (EF 29-32%) was 506. The “Total HF Events, Rate” value (EF 29-32%) was 27.1 per 100 pt-yrs, the “Total HF Hospitalizations, Events” value (EF 29-32%) was 472 and the “Total HF Hospitalizations, Rate” value (EF 29-32%) was 25.3 per 100 pt-yrs. For the same molecule, the “1st HF Hospitalization ARR” value (EF 29-32%) was −2.1 per 100 patient years, the “1st HF Hospitalization HR (95% CI)” value (EF 29-32%) was 1.19 (1.01, 1.42) and the “Adjudicated First Major Cardiac Ischemic Events, Relative Risk” value (EF 29-32%) was 1.08. For the same molecule, the “Adjudicated First Stroke, Relative Risk” value (EF 29-32%) was 0.83, the “Adverse Event: Ventricular Tachyarrhythmia, Relative Risk” value (EF 29-32%) was 0.96 and the “All-cause Death ARR” value (EF 29-32%) was −2.0 per 100 patient years. For the same molecule, the “All-cause Death HR (95% CI)” value (EF 29-32%) was 1.19 (0.99, 1.42), the “Any treatment Emergent Serious Adverse Events, Relative Risk” value (EF 29-32%) was 0.99 and the “First HF Event ARR” value (EF 29-32%) was −1.3 per 100 patient years. For the same molecule, the “First HF Event HR (95% CI)” value (EF 29-32%) was 1.13 (0.96, 1.33), the “Positively Adjudicated Myocardial Infarction, Relative Risk” value (EF 29-32%) was 1.00 and the “Primary Outcome ARR” value (EF 29-32%) was −1.4 per 100 patient years. For the same molecule, the “Primary Outcome HR (95% CI)” value (EF 29-32%) was 1.11 (0.96, 1.28), the “Serious Adverse Event: Ventricular Arrhythmia Requiring Treatment, Relative Risk” value (EF 29-32%) was 0.78 and the “Total HF Events, ARR” value (EF 29-32%) was 0.6 per 100 pt-yrs. For the same molecule, the “Total HF Events, Ratio (95% CI)” value (EF 29-32%) was 1.14 (0.93, 1.40), the “Total HF Hospitalizations, ARR” value (EF 29-32%) was −0.1 per 100 pt-yrs and the “Total HF Hospitalizations, Ratio (95% CI)” value (EF 29-32%) was 1.18 (0.96, 1.46). For the same molecule, the “Creatinine, Treatment Difference” value [2] was 0.01 mg/dL, the “Heart rate, Treatment Difference” value [2] was −1.9 bpm and the “KCCQ Total Symptom Score, Treatment Difference, least squares mean” value [2] was “+0.3”. The “NT-proBNP (Ratio)” value [2] was 0.95, the “Potassium, Treatment Difference” value [2] was -0.01 mmol/L and the “Systolic BP, Treatment Difference” value [2] was −0.6 mmHg.
